According to the supplement of paper PMC10331698:
± gives the standard deviation of the averaged measurements.

How the values were obtained:
Assay in all cases: level (log10 ratio to DMSO vehicle control); higher = higher biomarker level / cell amount than vehicle control
[1] = compound: C=CC(=O)OCC(F)(F)C(F)(F)C(F)(F)C(F)(F)COC(=O)C=C [1H,1H,6H,6H-Perfluorohexane-1,6-diol diacrylate]; conditions: 6700 nM; in DMSO
Method: (§1)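 BioMAP Diversity Plus panel of 12 human primary cell co-culture systems (3C, 4H, LPS, SAg, BT, BF4T, BE3C, CASM3C, HDF3CGF, KF3CT, MyoF, Mphg). Compounds were added 1 h before stimulation and left for 24 h (MyoF 48 h; BT 72 h for soluble read-outs or 6 d for IgG). Biomarkers were read by ELISA, cytotoxicity by SRB, PBMC viability and proliferation by Alamar Blue. Each well value was divided by the mean of 8 DMSO control wells on the same plate and log10 transformed; duplicate blinded samples were tested at 4 concentrations.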

[2] = compound: C=CC(=O)OCCC(F)(F)C(F)(F)C(F)(F)C(F)(F)C(F)(F)C(F)(F)C(F)(F)C(F)(F)F [8:2 Fluorotelomer acrylate]; conditions: in DMSO
Method: as §1

[3] = compound: Cc1ccc(S(=O)(=O)OCC(F)(F)C(F)(F)C(F)(F)C(F)(F)C(F)(F)C(F)F)cc1 [1H,1H,7H-Perfluoroheptyl 4-methylbenzenesulfonate]; conditions: in DMSO
Method: as §1

[4] = compound: O=C(O)C(F)(F)C(F)(F)C(F)(F)C(F)(F)C(F)(F)C(F)(F)C(F)(F)F [Ammonium perfluorooctanoate]; conditions: in DMSO
Method: as §1

[5] = compound: O=S(=O)(O)CCC(F)(F)C(F)(F)C(F)(F)C(F)(F)F [4:2 Fluorotelomer sulfonic acid]; conditions: in DMSO
Method: as §1

[6] = compound: OCC(F)(F)C(F)(F)C(F)(F)C(F)(F)C(F)(F)C(F)(F)F [6:1 Fluorotelomer alcohol]; conditions: in DMSO
Method: as §1

[7] = compound: OCCCCC(F)(F)C(F)(F)C(F)(F)C(F)(F)F [4:4 Fluorotelomer alcohol]; conditions: in DMSO
Method: as §1

Test System | level (log10) [1] | level (log10) ([2]; 6700 nM) | level (log10) ([2]; 20000 nM) | level (log10) ([2]; 60000 nM) | level (log10) ([3]; 6700 nM) | level (log10) ([3]; 20000 nM) | level (log10) ([3]; 60000 nM) | level (log10) ([4]; 6700 nM) | level (log10) ([4]; 20000 nM) | level (log10) ([4]; 60000 nM) | level (log10) ([5]; 6700 nM) | level (log10) ([5]; 20000 nM) | level (log10) ([5]; 60000 nM) | level (log10) ([6]; 6700 nM) | level (log10) ([6]; 20000 nM) | level (log10) ([6]; 60000 nM) | level (log10) ([7]; 6700 nM) | level (log10) ([7]; 20000 nM) | level (log10) ([7]; 60000 nM)
HDF3CGF:EGFR | -0.0155 ± 0.0078 | -0.003 ± 0.041 | -0.028 ± 0.031 | 0.006 ± 0.011 | -0.0165 ± 0.016 | -0.056 ± 0.0057 | -0.034 ± 0.0028 | -0.095 ± 0.14 | -0.005 ± 0.05 | -0.105 ± 0.087 | -0.0575 ± 0.093 | -0.042 ± 0.054 | -0.019 ± 0.079 | 0.009 ± 0.041 | 0.0125 ± 0.019 | -0.0555 ± 0.035 | -0.0155 ± 0.0035 | -0.0105 ± 0.0035 | 0.0195 ± 0.05
HDF3CGF:M-CSF | -0.588 ± 0.054 | -0.0205 ± 0.011 | -0.0375 ± 0.0021 | -0.0165 ± 0.013 | -0.0385 ± 0.0021 | -0.0225 ± 0.036 | -0.0095 ± 0.013 | 0.002 ± 0.037 | 0.034 ± 0.017 | -0.049 ± 0.042 | -0.038 ± 0.05 | -0.062 ± 0.05 | -0.0835 ± 0.019 | 0 ± 0.02 | 0.0355 ± 0.0092 | -0.225 ± 0.03 | -0.008 | -0.0015 ± 0.0092 | -0.014 ± 0.0014
HDF3CGF:MMP-1 | 0.0075 ± 0.0021 | 0.0165 ± 0.015 | 0.026 ± 0.011 | 0.0235 ± 0.029 | 0.024 ± 0.0014 | 0.0535 ± 0.016 | 0.066 ± 0.0014 | 0.027 ± 0.0085 | -0.002 ± 0.0099 | -0.027 ± 0.062 | -0.009 ± 0.0028 | -0.0285 ± 0.028 | -0.0365 ± 0.026 | 0.002 ± 0.0099 | 0.008 ± 0.0071 | -0.0355 ± 0.07 | -0.008 ± 0.0028 | 0.006 ± 0.0014 | 0.004 ± 0.0042
HDF3CGF:PAI-I | -0.074 ± 0.016 | -0.0135 ± 0.013 | -0.0665 ± 0.0021 | -0.071 ± 0.0057 | -0.004 ± 0.0042 | -0.009 ± 0.011 | 0.0065 ± 0.036 | 0.0885 ± 0.03 | 0.0995 ± 0.044 | 0.017 ± 0.044 | 0.0085 ± 0.044 | -0.011 ± 0.014 | -0.02 ± 0.021 | 0.006 ± 0.018 | 0.0105 ± 0.026 | -0.103 ± 0.18 | -0.0015 ± 0.012 | 0.0075 ± 0.03 | 0.0075 ± 0.054
HDF3CGF:Proliferation 72hr | -0.567 ± 0.013 | -0.011 ± 0.0099 | -0.026 ± 0.044 | -0.154 ± 0.076 | -0.031 ± 0.011 | 0.0195 ± 0.036 | -0.197 ± 0.11 | 0.058 ± 0.065 | 0.124 ± 0.018 | 0.119 ± 0.021 | -0.022 ± 0.092 | 0.001 ± 0.021 | -0.007 ± 0.047 | -0.0265 ± 0.033 | 0.003 ± 0.011 | -0.87 ± 0.098 | -0.003 ± 0.044 | 0.0205 ± 0.057 | 0.0355 ± 0.039
HDF3CGF:SRB | -0.291 ± 0.028 | -0.02 ± 0.0071 | -0.0305 ± 0.037 | 0.003 ± 0.0014 | 0.0175 ± 0.033 | -0.0095 ± 0.026 | -0.04 ± 0.055 | 0.057 ± 0.055 | 0.078 ± 0.0099 | 0.0945 ± 0.047 | -0.0365 ± 0.037 | -0.0075 ± 0.033 | 0.033 ± 0.058 | 0.0015 ± 0.067 | -0.003 ± 0.025 | -0.139 ± 0.13 | 0.0015 ± 0.036 | -0.0165 ± 0.0064 | 0.006 ± 0.018
HDF3CGF:TIMP-1 | -0.203 ± 0.0021 | -0.03 ± 0.02 | -0.0265 ± 0.022 | -0.011 ± 0.061 | -0.026 ± 0.027 | -0.0285 ± 0.047 | -0.023 ± 0.025 | 0.013 ± 0.0028 | 0.0065 ± 0.016 | 0.008 ± 0.02 | -0.0045 ± 0.047 | -0.0015 ± 0.00071 | 0.0035 ± 0.084 | -0.009 ± 0.0085 | -0.022 | -0.014 ± 0.027 | -0.006 ± 0.017 | -0.001 ± 0.034 | 0.02 ± 0.057
HDF3CGF:TIMP-2 | -0.104 ± 0.066 | -0.014 ± 0.027 | -0.0405 ± 0.0064 | -0.0295 ± 0.0092 | -0.042 ± 0.081 | -0.101 ± 0.053 | -0.032 ± 0.035 | 0.0225 ± 0.015 | 0.0535 ± 0.039 | 0.047 ± 0.05 | -0.026 ± 0.0028 | -0.0335 ± 0.016 | -0.009 ± 0.051 | 0.004 ± 0.0099 | -0.0195 ± 0.0064 | -0.0905 ± 0.17 | -0.004 ± 0.0099 | 0.024 ± 0.028 | -0.0225 ± 0.026
